Data published in patent US8916702B2 (priority 2012, dated 2014).
pEC50: −log10 of the molar value. Like-named read-outs stand apart in the source and are kept apart here.

Tested on: HCV pseudoparticles (genotype 1a HCV E1 and E2 envelope, H77C isolate)
Assay: microbe, parasite or virus in culture
Format: cell-based
Details: Hepatitis C virus
[1] = Huh-7, 48 h, read-out: Activity (EC50 class), HCV pseudoparticle infection of Huh7 cells, luciferase 2 days after infection, EC50 expressed as class A/B
[2] = Huh-7, read-out: Activity (EC50 class), HCV pseudoparticles (genotype 1a, H77C) in Huh7 cells, EC50 expressed as class A/B
[3] = Huh-7, 48 h, HCV pseudoparticle infection of Huh7 cells, luciferase 2 days after infection, average of duplicates
[4] = Huh-7, 48 h, read-out: Activity (EC50 class), HCV pseudoparticles, Huh7 cells, luciferase 2 days after infection, average of duplicates
[5] = Huh-7, 48 h, HCV pseudoparticles (genotype 1a, H77C) in Huh7 cells, average of duplicate, luciferase 2 days after infection

Row | SMILES | pEC50 [1] | other results
1 | O=C(NCC1CC1)C(=O)NC1CCCC1CNC(=O)c1ccc(Nc2nc(NC3(c4ccc(Cl)cc4)CC3)nc(OCC(F)(F)F)n2)cc1 (stereo not shown) [Compound 1462] | 8.00 to 11.00 | –
2 | Cn1nccc1NC(=O)C(=O)NC[C@H](NC(=O)c1ccc(Nc2nc(NC3(c4ccc(Cl)cc4)CC3)nc(OCC(F)(F)F)n2)cc1)C(=O)O [Compound 1368] | 8.00 to 11.00 | –
3 | COc1ccc(CCNC(=O)C(=O)NCC[C@H](NC(=O)c2ccc(Nc3nc(NC4(c5ccc(Cl)cc5)CC4)nc(OCC(F)(F)F)n3)cc2)C(=O)O)cc1 [Compound 1331] | 8.00 to 11.00 | –
4 | COC(=O)[C@@H](CCNC(=O)C(=O)NC(CCO)C1CC1)NC(=O)c1ccc(Nc2nc(NC3(c4ccc(Cl)cc4)CC3)nc(OCC(F)(F)F)n2)cc1 (stereo partly shown) [Compound 1390] | 8.00 to 11.00 | –
5 | COC(=O)[C@H](CCNC(=O)C(=O)NCC1(C2CCCCC2)CC1)NC(=O)c1ccc(Nc2nc(NC3(c4ccc(Cl)cc4)CC3)nc(OCC(F)(F)F)n2)cc1 [Compound 1203] | 8.00 to 11.00 | –
6 | CC(C)(CNC(=O)C(=O)Nc1ccccc1-c1ccccc1)CNC(=O)c1ccc(Nc2nc(NC3(c4ccc(Cl)cc4)CC3)nc(OCC(F)(F)F)n2)cc1F [Compound 3556] | – | pEC50 [2]: 8.00 to 11.00
7 | CCOC(=O)[C@H](CCNC(=O)C(=O)NC)NC(=O)c1ccc(Nc2nc(NC3(c4ccc(Cl)cc4)CC3)nc(OCC(F)(F)F)n2)cc1 [Compound 1027, (S)-ethyl 2-(4-(4-(1-(4-chlorophenyl)cyclopropylamino)-6-(2,2,2-trifluoroethoxy)-1,3,5-triazin-2-ylamino)benzamido)-4-(2-(methylamino)-2-oxoacetamido)butanoate] | 8.00 to 11.00 | –
8 | COc1cccc(CCNC(=O)C(=O)NC[C@H](NC(=O)c2ccc(Nc3nc(NC4(c5ccc(Cl)cc5)CC4)nc(OCC(F)(F)F)n3)cc2)C(=O)O)c1 [Compound 1398] | 8.00 to 11.00 | pEC50 [3]: 8.66
9 | COC(=O)[C@H](CNC(=O)C(=O)NCCc1ccncc1)NC(=O)c1ccc(Nc2nc(NC3(c4ccc(Cl)cc4)CC3)nc(OCC(F)(F)F)n2)cc1 [Compound 1288] | 8.00 to 11.00 | –
10 | CN(C)c1ccc(NC(=O)C(=O)NCC(C)(C)CNC(=O)c2ccc(Nc3nc(NC4(c5ccc(Cl)cc5)CC4)nc(OCC(F)(F)F)n3)cc2)cc1 [Compound 1602] | 8.00 to 11.00 | –
11 | Cn1cnnc1-c1ccc(NC(=O)C(=O)NCC(C)(C)CNC(=O)c2ccc(Nc3nc(NC4(c5ccc(Cl)cc5)CC4)nc(OCC(F)(F)F)n3)cc2)cc1 [Compound 1601] | 8.00 to 11.00 | pEC50 [3]: 10.52
12 | CN(C(=O)C(=O)NC[C@H](NC(=O)c1ccc(Nc2nc(NC3(c4ccc(Cl)cc4)CC3)nc(OCC(F)(F)F)n2)cc1)C(=O)O)c1ccccc1 [Compound 1365] | 8.00 to 11.00 | –
13 | COC(=O)/C(CCNC(=O)C(=O)Nc1ccc(OCCN2CCCCC2)nc1)=N\C(=O)c1ccc(Nc2nc(NC3(c4ccc(Cl)cc4)CC3)nc(OCC(F)(F)F)n2)cc1 [Compound 3598] | – | pEC50 [2]: 8.00 to 11.00
14 | CC(C)(CNC(=O)C(=O)Nc1nc2ccc(C(C)(O)O)cc2s1)CNC(=O)c1ccc(Nc2nc(NC3(c4ccc(Cl)cc4)CC3)nc(OCC(F)(F)F)n2)cc1 [Compound 3822] | – | pEC50 [4]: 8.00 to 11.00
15 | N#Cc1cccc(NC(=O)C(=O)NC[C@H](NC(=O)c2ccc(Nc3nc(NC4(c5ccc(Cl)cc5)CC4)nc(OCC(F)(F)F)n3)cc2)C(=O)Cl)c1 [Compound 3740] | – | pEC50 [4]: 8.00 to 11.00
16 | CC(C)OC(=O)[C@H](CNC(=O)C(=O)N(C)C)NC(=O)c1ccc(Nc2nc(NC3(c4ccc(Cl)cc4)CC3)nc(OCC(F)(F)F)n2)cc1 [Compound 1021, (S)-isopropyl 2-(4-(4-(1-(4-chlorophenyl)cyclopropylamino)-6-(2,2,2-trifluoroethoxy)-1,3,5-triazin-2-ylamino)benzamido)-3-(2-(dimethylamino)-2-oxoacetamido)propanoate] | 8.00 to 11.00 | –
17 | CC(C)(Cc1ccc(F)cc1)NC(=O)C(=O)NCC[C@H](NC(=O)c1ccc(Nc2nc(NC3(c4ccc(Cl)cc4)CC3)nc(OCC(F)(F)F)n2)cc1)C(=O)O [Compound 1340] | 8.00 to 11.00 | pEC50 [3]: 10.00
18 | COc1ncccc1NC(=O)C(=O)NC[C@H](NC(=O)c1ccc(Nc2nc(NC3(c4ccc(Cl)cc4)CC3)nc(OCC(F)(F)F)n2)cc1)C(=O)O [Compound 1347] | 8.00 to 11.00 | –
19 | O=C(NCC[C@H](NC(=O)c1ccc(Nc2nc(NC3(c4ccc(Cl)cc4)CC3)nc(OCC(F)(F)F)n2)cc1)C(=O)O)C(=O)Nc1cccc(-c2ccccc2)c1 [Compound 1523] | 8.00 to 11.00 | pEC50 [3]: 9.59
20 | O=C(NC[C@H](NC(=O)c1ccc(Nc2nc(NC3(c4ccc(Cl)cc4)CC3)nc(OCC(F)(F)F)n2)cc1)C(=O)O)C(=O)Nc1cccc(-c2ccncc2)c1 [Compound 3768] | – | pEC50 [4]: 8.00 to 11.00
21 | COC(=O)/C(CCNC(=O)C(=O)Nc1ccc(N)nc1)=N\C(=O)c1ccc(Nc2nc(NC3(c4ccc(Cl)cc4)CC3)nc(OCC(F)(F)F)n2)cc1 [Compound 3587] | – | pEC50 [2]: 8.00 to 11.00
22 | CC(C)(CNC(=O)C(=O)NO)CNC(=O)c1ccc(Nc2nc(NC3(c4ccc(Cl)cc4)CC3)nc(OCC(F)(F)F)n2)cc1 [Compound 3074] | – | pEC50 [5]: 10.27; pEC50 [2]: 8.00 to 11.00

Row | SMILES | pEC50 [1] | other results
23 | COC(=O)/C(CCNC(=O)C(=O)Nc1ccc(-n2cccn2)cc1)=N\C(=O)c1ccc(Nc2nc(NC3(c4ccc(Cl)cc4)CC3)nc(OCC(F)(F)F)n2)cc1 [Compound 3136] | – | pEC50 [2]: 8.00 to 11.00
24 | O=C(NCC[C@H](NC(=O)c1ccc(Nc2nc(NC3(c4ccc(Cl)cc4)CC3)nc(OCC(F)(F)F)n2)cc1)C(=O)O)C(=O)NCC1CCOCC1 [Compound 1215] | 8.00 to 11.00 | –
25 | O=C(NCC[C@H](NC(=O)c1ccc(Nc2nc(NC3(c4ccc(Cl)cc4)CC3)nc(OCC(F)(F)F)n2)cc1)C(=O)O)C(=O)NC1CCCC(O)C1 (stereo partly shown) [Compound 1112] | 8.00 to 11.00 | pEC50 [3]: 8.91
26 | COC(=O)[C@H](CCNC(=O)C(=O)Nc1ccc(Cl)cc1)NC(=O)c1ccc(Nc2nc(NC3(c4ccc(Cl)cc4)CC3)nc(OCC(F)(F)F)n2)cc1 [Compound 1515] | 8.00 to 11.00 | –
27 | COc1ccc(NC(=O)C(=O)NCC(C)(C)CNC(=O)c2ccc(Nc3nc(NC4(c5ccc(Cl)cc5)CC4)nc(OCC(F)(F)F)n3)cc2)cn1 [Compound 3257] | – | pEC50 [2]: 8.00 to 11.00
28 | COC(=O)[C@H](CNC(=O)C(=O)Nc1ccc(C2CCCCC2)cc1)NC(=O)c1ccc(Nc2nc(NC3(c4ccc(Cl)cc4)CC3)nc(OCC(F)(F)F)n2)cc1 [Compound 3079] | – | pEC50 [5]: 8.85; pEC50 [2]: 8.00 to 11.00
29 | COC(=O)[C@H](CCNC(=O)C(=O)Nc1ccc(Cn2ccnc2C)cc1)NC(=O)c1ccc(Nc2nc(NC3(c4ccc(Cl)cc4)CC3)nc(OCC(F)(F)F)n2)cc1 [Compound 3321] | – | pEC50 [2]: 6.00 to 8.00
30 | COC(=O)[C@H](CNC(=O)C(=O)NCC1CCCCCC1)NC(=O)c1ccc(Nc2nc(NC3(c4ccc(Cl)cc4)CC3)nc(OCC(F)(F)F)n2)cc1 [Compound 1451] | 8.00 to 11.00 | –
31 | O=C1CC(NC(=O)C(=O)NC[C@H](NC(=O)c2ccc(Nc3nc(NC4(c5ccc(Cl)cc5)CC4)nc(OCC(F)(F)F)n3)cc2)C(=O)O)CCN1 (stereo partly shown) [Compound 1082] | 8.00 to 11.00 | –
32 | C[C@@H]1[C@H]2C[C@H](C[C@H]1NC(=O)C(=O)NC[C@H](NC(=O)c1ccc(Nc3nc(NC4(c5ccc(Cl)cc5)CC4)nc(OCC(F)(F)F)n3)cc1)C(=O)O)C2(C)C [Compound 1105] | 8.00 to 11.00 | –
33 | CN(C(=O)C(=O)NCC(C)(C)CNC(=O)c1ccc(Nc2nc(NC3(c4ccc(Cl)cc4)CC3)nc(OCC(F)(F)F)n2)cc1)c1ccc(F)cc1 [Compound 1599] | 8.00 to 11.00 | –
34 | C[C@]12C3C1[C@H]3C[C@H]2NC(=O)C(=O)NC[C@H](NC(=O)c1ccc(Nc2nc(NC3(c4ccc(Cl)cc4)CC3)nc(OCC(F)(F)F)n2)cc1)C(=O)O (stereo partly shown) [Compound 1084] | 8.00 to 11.00 | pEC50 [3]: 9.59
35 | CC(C)(CNC(=O)C(=O)NCc1cccc(F)c1)CNC(=O)c1ccc(Nc2nc(NC3(c4ccc(Cl)cc4)CC3)nc(OCC(F)(F)F)n2)cc1 [Compound 3004] | – | pEC50 [2]: 8.00 to 11.00
36 | NC(=O)C(=O)NCCC(NC(=O)c1ccc(Nc2nc(NC3(c4ccc(Cl)cc4)CC3)nc(OCC(F)(F)F)n2)cc1)C(=O)O (stereo in doubt) [Compound 1013, (S)-4-(2-amino-2-oxoacetamido)-2-(4-(4-(1-(4-chlorophenyl)cyclopropylamino)-6-(2,2,2-trifluoroethoxy)-1,3,5-triazin-2-ylamino)benzamido)butanoic acid] | 8.00 to 11.00 | –
37 | C#Cc1cccc(NC(=O)C(=O)NC[C@H](NC(=O)c2ccc(Nc3nc(NC4(c5ccc(Cl)cc5)CC4)nc(OCC(F)(F)F)n3)cc2)C(=O)Cl)c1 [Compound 3746] | – | pEC50 [4]: 8.00 to 11.00
38 | COC(=O)[C@H](CNC(=O)C(=O)Nc1ccc(OC2CCOCC2)cc1)NC(=O)c1ccc(Nc2nc(NC3(c4ccc(Cl)cc4)CC3)nc(OCC(F)(F)F)n2)cc1 [Compound 3208] | – | pEC50 [2]: 8.00 to 11.00
39 | O=C(NCC1CC1)C(=O)NCC1(CNC(=O)c2ccc(Nc3nc(NC4(c5ccc(Cl)cc5)CC4)nc(OCC(F)(F)F)n3)cc2)CC1 [Compound 1493] | 8.00 to 11.00 | –
40 | COC(=O)[C@H](CCNC(=O)C(=O)Nc1ccc(N2CCN(Cc3ccccc3)CC2)cc1)NC(=O)c1ccc(Nc2nc(NC3(c4ccc(Cl)cc4)CC3)nc(OCC(F)(F)F)n2)cc1 [Compound 3131] | – | pEC50 [2]: 8.00 to 11.00
41 | O=C(NCC[C@H](NC(=O)c1ccc(Nc2nc(NC3(c4ccc(Cl)cc4)CC3)nc(OCC(F)(F)F)n2)cc1)C(=O)O)C(=O)Nc1ccc(F)c(F)c1F [Compound 1509] | 8.00 to 11.00 | –
42 | CC(C)(CNC(=O)C(=O)Nc1ccc(-c2ccc(-c3ccccc3)cc2)cc1)CNC(=O)c1ccc(Nc2nc(NC3(c4ccc(Cl)cc4)CC3)nc(OCC(F)(F)F)n2)cc1 [Compound 1564] | 8.00 to 11.00 | –
43 | COC(=O)[C@H](CNC(=O)C(=O)Nc1cccc(-c2ccccc2)c1)NC(=O)c1ccc(Nc2nc(NC3(c4ccc(Cl)cc4)CC3)nc(OCC(F)(F)F)n2)cc1 [Compound 3695] | – | pEC50 [4]: 8.00 to 11.00
44 | COC(=O)[C@H](CNC(=O)C(=O)Nc1ccc(NC(C)=O)nc1)NC(=O)c1ccc(Nc2nc(NC3(c4ccc(Cl)cc4)CC3)nc(OCC(F)(F)F)n2)cc1 [Compound 3706] | – | pEC50 [4]: 8.00 to 11.00
